Test results published in patent US20030236302A1, “Synthetic derivatives” (priority 2002, published 2003).

Experiments:
TNFα = TNFα production in IFN-primed, SAC-stimulated THP-1 cells (ELISA); format: cell-based, Human; details: THP-1 cells primed by IFNα (100 U/mL) 22 h, stimulated with 0.025% SAC, supernatants after 24 h
Method: (§1) Human monocytic THP-1 cells were primed by IFNα (100 U/mL) for 22 h and then stimulated with 0.025% SAC in the presence of different concentrations of a test compound. The test compounds were prepared in DMSO and the final DMSO concentration was adjusted to 0.25% in all cell cultures, including the compound-free control. Supernatants from the cultures were removed after 24 h, and assayed for productions of IL-12 and […]. Cell viability was assessed using the bioreduction of MTS [3-(4,5-dimethylthiazol-2-yl)-5-(3-carboxymethoxyphenyl)-2-(4-sulfophenyl)-2H-tetrazolium] (Promega, Madison, Wis.), with cell survival estimated as the ratio of the absorbance in compound-treated groups versus compound-free control. Human IL-12 p70 (heterodimer) and TNFα were assayed using ELISA kit from Endogen (Cambridge, Mass.), according to the manufacturer's instructions.

[1] = system: Human IL-12 p70 (heterodimer); assay: IL-12 production in IFN-primed, SAC-stimulated THP-1 cells (ELISA); format: cell-based; details: THP-1 cells primed by IFNα (100 U/mL) 22 h, stimulated with 0.025% SAC, supernatants after 24 h
Method: as §1

[2] = Cell viability by MTS bioreduction; format: cell-based, Human; details: human, THP-1 monocytic cells (IFNα-primed, SAC-stimulated), THP-1 cells, survival vs compound-free control, read-out: CC50 (μM) Cell Toxicity
Method: as §1

[3] = system: Human monocytic THP-1 cells; assay: Cell viability by MTS bioreduction; format: cell-based; details: survival vs compound-free control, read-out: CC50 (μM) Cell Toxicity
Method: as §1

Row | SMILES | IC50 (TNFα; Homo sapiens) [µM] | IC50 ([1]; Homo sapiens) [µM] | CC50 at 24 h [2] [µM] | IC50 [1] [µM] | CC50 [3] [µM] | IC50 (TNFα) [µM]
1 | O=C1CC(=O)O[C@@H](CCc2ccccc2)C1 [Compound 1, S-(+)-6-Phenethyl-dihydro-pyran-2,4-dione] | 40 | 30 | > 100 |  |  | 
2 | O=C1CC(=O)O[C@@H](CCc2ccc(F)cc2)C1 [Compound 2, 6-[2-(4-Fluoro-phenyl)-ethyl]-dihydro-pyran-2,4-dione] | 30 | 30 | > 100 |  |  | 
3 | O=C1CC(=O)O[C@@H](CCc2ccccc2F)C1 [Compound 3, (S)-6-[2-(2-fluoro-phenyl)-ethyl]-dihydro-pyran-2,4-dione] | 40 | 70 |  |  |  | 
4 | O=C1CC(=O)O[C@@H](CCc2cccc(F)c2)C1 [Compound 4, (S)-6-[2-(3-Fluoro-phenyl)-ethyl]-dihydro-pyran-2,4-dione] | 20 | 40 | > 100 |  |  | 
5 | O=C1C=C(O)CC(/C=C/c2cccnc2)O1 (stereo not shown) [Compound 5, 6-(2-pyridin-3-yl-vinyl)-dihydro-pyran-2,4-one] | 100 | 80 | > 100 |  |  | 
6 | COC1=CC(=O)OC(CCc2ccc[nH]2)C1 (stereo not shown) [Compound 6, 4-Methoxy-6-[2-(1H-pyrrol-2-yl)-ethyl]-5,6-dihydro-pyran-2-one] | 100 | 70 | > 100 |  |  | 
7 | COC1=CC(=O)O[C@@H](CCc2ccccc2F)C1 [Compound 7, (S)-6-[2-(2-Fluoro-phenyl)-ethyl]-4-methoxy-5,6-dihydro-pyran-2-one] | 62 | 38 | > 100 |  |  | 
8 | COC1=CC(=O)O[C@@H](CCc2cccc(F)c2)C1 [Compound 8, (S)-6-[2-(3-Fluoro-phenyl)-ethyl]-4-methoxy-5,6-dihydro-pyran-2-one] | 70 | 65 | > 100 |  |  | 
9 | COC1=CC(=O)O[C@@H](CCc2ccc(F)cc2)C1 [Compound 9, (S)-6-[2-(4-Fluoro-phenyl)-ethyl]-4-methoxy-5,6-dihydro-pyran-2-one] | 100 | 86 | > 100 |  |  | 
10 | O=C1C=CC[C@H](CCc2ccccc2)O1 [Compound 10, (S)-6-Phenethyl-5,6-dihydro-pyran-2-one] | 13 | 10 | 100 |  |  | 
11 | O=C1C=CC[C@H](CCc2cccc(F)c2)O1 [Compound 11, S-6-[2-(3-Fluoro-phenyl)-ethyl]-5,6-dihydro-pyran-2-one] | 5 | 10 | 100 |  |  | 
12 | COc1cc(CC[C@H]2CC=CC(=O)O2)cc(OC)c1OC [Compound 12, S-6-[2-(3,4,5-trimethoxylphenyl)-ethyl]-5,6-dihydro-pyran-2-one] | 25 | 10 | 100 |  |  | 
13 | COC1=CC(=O)OC(C=Cc2ccc(C#N)cc2)C1 (stereo not shown) [Compound 13, 6-[2-(4-cyano-phenyl)-vinyl]-4-methoxy-5,6-dihydro-pyan-2-one] |  |  |  | 80 | > 100 | 
14 | COC1=CC(=O)OC(/C=C/c2ccc(F)c(F)c2)C1 (stereo not shown) [Compound 14, 6-[2-(3,4-difluoro-phenyl)-vinyl]-4-methoxy-5,6-dihydro-pyan-2-one] | 70 | 70 | > 100 |  |  | 
15 | COC1=CC(=O)OC(/C=C/c2ccc(F)c(F)c2F)C1 (stereo not shown) [Compound 15] | 60 | 90 | > 100 |  |  | 
16 | COC(=O)c1ccc(CCC2CC(OC)=CC(=O)O2)cc1 (stereo not shown) [Compound 16, 4-[2-(4-methoxy-6-oxo-3,6-dihydro-2H-pyran-2-yl)-ethyl]-benzoic acid methyl ester] | 80 | 80 | > 100 |  |  | 
17 | COC1=CC(=O)OC(CCc2ccc(F)c(F)c2)C1 (stereo not shown) [Compound 17, 6-[2-(3,4-difluoro-phenyl)-ethyl]-4-methoxy-5,6-dihydro-pyan-2-one] |  |  |  | 80 | > 100 | 80
18 | COC1=CC(=O)OC(CCc2ccc(F)cc2)C1 (stereo not shown) [Compound 18, 6-[2-(4-fluoro-phenyl)-ethyl]-4-methoxy-5,6-dihydro-pyan-2-one] |  |  |  | 80 | > 100 | 70
19 | CC(C)OC1=CC(=O)O[C@@H](CCc2ccccc2)C1 [Compound 19, S-(+)-4-isopropoxy-6-phenethyl-5,6-dihydro-pyran-2-one] | 70 | 70 | > 100 |  |  | 
20 | CCOC1=CC(=O)O[C@@H](CCc2ccccc2)C1 [Compound 20, (S)-4-Ethoxy-6-phenethyl-5,6-dihydro-pyran-2-one] | 100 | 80 | > 100 |  |  | 
21 | COC1=CC(=O)O[C@@H](CCc2cccnc2)C1 [Compound 21, 4-Methoxy-6-(2-pyridin-3-yl-ethyl)-5,6-dihydro-pyran-2-one] | 80 | 100 | > 100 |  |  | 
